Test results from patent US20220330549A1, “USE OF N-BENZYLBENZAMIDE-BASED COMPOUND AS HERBICIDE” (Northwest A&F University, priority 2020, published 2022).

Legend:
Type in all cases: in vivo
[1] = system: Amaranthus retroflexus; experiment: Herbicidal activity test for indoor pre-emergence soil treatment; parameters: key: 1-9 levels; higher = more weed remaining vs blank control; conditions: 150 g a.i./ha, visual inspection 21 days after treatment
Procedure: (§1) The herbicidal activity test for indoor pre-emergence soil treatment was performed with some of the N-benzylbenzamide-based compounds of general formula I or II with reference to the method of NY/T 1155.3-2006. Neutral sandy loam soil having an organic content of ≤2% was added to fill ⅘ of the pot, and the soil was completely moistened by infiltrating irrigation from the bottom of the pot. The seeds of the test weed were evenly spread on the soil surface, and then covered by 0.5 cm to 2.0 cm of soil depending on the seed size. Representative compounds in the examples were used to prepare emulsifiable concentrates (10%), and spray treatments to the soil were performed 24 hours after the sowing with the test agents diluted with water, at a spraying dosage of 150 g(a.i.)/ha. Then, the results were investigated by visual inspection 21 days after the treatments. The herbicidal activity of the agent was evaluated on a scale of 1-9 levels according to the symptoms and severity of damage to the test weeds.
(§2) Level 2: equivalent to 0 to 2.5% of the weed in the blank control area;
(§3) Level 3: equivalent to 2.6 to 5% of the weed in the blank control area;
(§4) Level 4: equivalent to 5.1 to 10% of the weed in the blank control area;
(§5) Level 5: equivalent to 10.1 to 15% of the weed in the blank control area;
(§6) Level 6: equivalent to 15.1 to 25% of the weed in the blank control area;
(§7) Level 7: equivalent to 25.1 to 35% of the weed in the blank control area;
(§8) Level 8: equivalent to 35.1 to 67.5% of the weed in the blank control area; and
(§9) Level 9: equivalent to 67.6 to 100% of the weed in the blank control area.

[2] = system: Digitaria sanguinalis; experiment: as above; parameters: key: 1-9 levels; higher = more weed remaining vs blank control; conditions: 150 g a.i./ha, visual inspection 21 days after treatment
Procedure: as §1, §2, §3, §4, §5, §6, §7, §8, §9

[3] = system: Gramineae; experiment: Post-emergence herbicidal activity test in a paddy field; parameters: key: level scale; higher level = more weed left vs blank control; conditions: 150 g a.i./ha (penoxsulam control 250 g(a.i.)/h)
Procedure: (§10) The post-emergence herbicidal activity test was performed in a paddy field with some of the N-benzylbenzamide-based compounds of general formula I or II with reference to the method of GB/T 17980.40-2000. […] Spray treatments were performed in the stage where 4 leaves to 5 leaves were grown for the rice seedlings which was about 1 month after the sowing. Representative compounds in the examples were used to prepare emulsifiable concentrates (10%), and spray treatments were performed with the concentrates in water at a dosage of 150 g(a.i.)/ha, and repeated 4 times for each treatment, and the area was 50 m^2. 25 g/L of penoxsulam suspension was used as a control agent and applied at a dosage of 250 g(a.i.)/h. The results were investigated by a value estimating survey method 15 days and 30 days after the treatments. The relative weed population quantities were estimated by comparing each agent treated area with an adjacent blank control area, and the results of which were investigated with the following grading standard method using the overall coverage of the weed population as an indicator.
as §2, §3, §4, §5, §6, §7, §8, §9

[4] = system: Cyperaceae; experiment: as above; parameters: key: level scale; higher level = more weed left vs blank control; conditions: 150 g a.i./ha (penoxsulam control 250 g(a.i.)/h)
Procedure: as §10, §2, §3, §4, §5, §6, §7, §8, §9

[5] = system: Broadleaf weed; experiment: as above; parameters: key: level scale; higher level = more weed left vs blank control; conditions: 150 g a.i./ha (penoxsulam control 250 g(a.i.)/h)
Procedure: as §10, §2, §3, §4, §5, §6, §7, §8, §9

[6] = system: Piemarker; experiment: Herbicidal activity test for indoor pre-emergence soil treatment; parameters: key: level 1-9; higher = more weed remaining vs blank control; conditions: 150 g a.i./ha, visual inspection 21 days after treatment
Procedure: as §1, §2, §3, §4, §5, §6, §7, §8, §9

[7] = system: green bristlegrass; experiment: as above; parameters: key: level 1-9; higher = more weed remaining vs blank control; conditions: 150 g a.i./ha, visual inspection 21 days after treatment
Procedure: as §1, §2, §3, §4, §5, §6, §7, §8, §9

[8] = system: Barnyard grass; experiment: as above; parameters: key: level 1-9; higher = more weed remaining vs blank control; conditions: 150 g a.i./ha, visual inspection 21 days after treatment
Procedure: as §1, §2, §3, §4, §5, §6, §7, §8, §9

[9] = system: Piemarker; experiment: Herbicidal activity test for indoor post-emergence spraying on stems and leaves; parameters: key: grade level by weed remaining vs blank control, e.g. 5 = 10.1-15%; conditions: 150 g a.i./ha, visual inspection 21 days after treatment
Procedure: (§11) The post-emergence herbicidal activity test was performed with some of the N-benzylbenzamide-based compounds of general formula I or II with reference to the method of NY/T 1155.4-2006. […] After the sowing, the weed was moved to a greenhouse for regular cultivation. […] Then, the results were investigated by visual inspection 21 days after the treatments. […] Level 5: equivalent to 10.1 to 15% of the weed in the blank control area; Level 6: equivalent to 15.1 to 25% of the weed in the blank control area; Level 7: equivalent to 25.1 to 35% of the weed in the blank control area; Level 8: equivalent to 35.1 to 67.5% of the weed in the blank control area; and […]

[10] = system: green bristlegrass; experiment: as above; parameters: key: grade level by weed remaining vs blank control, e.g. 5 = 10.1-15%; conditions: 150 g a.i./ha, visual inspection 21 days after treatment
Procedure: as §11

[11] = system: Humulus scandens; experiment: as above; parameters: key: grade level by weed remaining vs blank control, e.g. 5 = 10.1-15%; conditions: 150 g a.i./ha, visual inspection 21 days after treatment
Procedure: as §11

[12] = system: Barnyard grass; experiment: as above; parameters: key: grade level by weed remaining vs blank control, e.g. 5 = 10.1-15%; conditions: 150 g a.i./ha, visual inspection 21 days after treatment
Procedure: as §11

[13] = system: Amaranthus retroflexus; experiment: as above; parameters: key: grade level by weed remaining vs blank control, e.g. 5 = 10.1-15%; conditions: 150 g a.i./ha, visual inspection 21 days after treatment
Procedure: as §11

[14] = system: Digitaria sanguinalis; experiment: as above; parameters: key: grade level by weed remaining vs blank control, e.g. 5 = 10.1-15%; conditions: 150 g a.i./ha, visual inspection 21 days after treatment
Procedure: as §11

[15] = system: Humulus scandens; experiment: Herbicidal activity test for indoor pre-emergence soil treatment; conditions: 150 g a.i./ha, visual inspection 21 days after treatment
Procedure: as §1, §2, §3, §4, §5, §6, §7, §8, §9

[16] = system: goosegrass; experiment: Field test for weed control in a corn field; conditions: 150 g a.i./ha, after treatment
Procedure: (§12) The weed control efficacy field test was performed in a corn field with some of the N-benzylbenzamide-based compounds of general formula I or II with reference to the method of GB/T 17980.42-2000. […] Spray treatments were performed in the stage where 2 leaves to 5 leaves were grown for the corns after the sowing. Representative compounds in the examples were used to prepare emulsifiable concentrates (10%), and spray treatments were performed with the concentrates in water at a dosage of 150 g(a.i.)/ha, and repeated 4 times for each treatment, and the area was 20 m^2. Oil dispersion with 25% of mesotrione was used as a control agent and applied at a dosage of 150 g(a.i.)/h. […] The herbicidal activities of the agents were evaluated on a scale of 1-9 levels according to the symptoms and severity of damage to the test weeds.
as §2, §3, §4, §5, §6, §7, §8, §9

[17] = system: Acalypha australis; experiment: Field test for weed control in a corn field; conditions: 150 g a.i./ha, after treatment
Procedure: as §12, §2, §3, §4, §5, §6, §7, §8, §9

[18] = system: green bristlegrass; experiment: Field test for weed control in a corn field; conditions: 150 g a.i./ha, after treatment
Procedure: as §12, §2, §3, §4, §5, §6, §7, §8, §9

[19] = system: nutgrass flatsedge; experiment: Field test for weed control in a corn field; conditions: 150 g a.i./ha, after treatment
Procedure: as §12, §2, §3, §4, §5, §6, §7, §8, §9

[20] = system: Chenopodium album; experiment: Field test for weed control in a corn field; conditions: 150 g a.i./ha, after treatment
Procedure: as §12, §2, §3, §4, §5, §6, §7, §8, §9

[21] = system: Barnyard grass; experiment: Field test for weed control in a corn field; conditions: 150 g a.i./ha, 30 days after treatment
Procedure: as §12, §2, §3, §4, §5, §6, §7, §8, §9

[22] = system: Portulaca oleracea; experiment: Field test for weed control in a corn field; conditions: 150 g a.i./ha, after treatment
Procedure: as §12, §2, §3, §4, §5, §6, §7, §8, §9

[23] = system: Solanum nigrum; experiment: Field test for weed control in a corn field; conditions: 150 g a.i./ha, 30 days after treatment
Procedure: as §12, §2, §3, §4, §5, §6, §7, §8, §9

[24] = system: Amaranthus retroflexus; experiment: Field test for weed control in a corn field; conditions: 150 g a.i./ha, 30 days after treatment
Procedure: as §12, §2, §3, §4, §5, §6, §7, §8, §9

[25] = system: Convolvulus arvensis; experiment: Field test for weed control in a corn field; conditions: 150 g a.i./ha, after treatment
Procedure: as §12, §2, §3, §4, §5, §6, §7, §8, §9

[26] = system: Digitaria sanguinalis; experiment: Field test for weed control in a corn field; conditions: 150 g a.i./ha, after treatment
Procedure: as §12, §2, §3, §4, §5, §6, §7, §8, §9

Compound | Herbicidal Activity Amaranthus retroflexus [1] | Herbicidal Activity Digitaria sanguinalis [2] | Herbicidal activity 15 days after treatment Gramineae [3] | Herbicidal activity 30 days after treatment Gramineae [3] | Herbicidal activity 15 days after treatment Cyperaceae [4] | Herbicidal activity 30 days after treatment Cyperaceae [4] | Herbicidal activity 15 days after treatment Broadleaf weed [5] | Herbicidal activity 30 days after treatment Broadleaf weed [5] | Herbicidal Activity Piemarker [6] | Herbicidal Activity Green bristlegrass [7] | Herbicidal Activity Barnyard grass [8] | Herbicidal Activity Piemarker [9] | Herbicidal Activity Green bristlegrass [10] | Herbicidal Activity Humulus scandens [11] | Herbicidal Activity Barnyard grass [12] | Herbicidal Activity Amaranthus retroflexus [13] | Herbicidal Activity Digitaria sanguinalis [14] | Herbicidal Activity Humulus scandens [15] | Post-emergence weed control effect, Goose grass [16] | Post-emergence weed control effect, Acalypha australis [17] | other results
COc1ccccc1C(=O)NCc1cccc(F)c1 [Compound A01, N-(3-fluorobenzylamine)-2-methoxybenzamide] | 3 (equivalent to 2.6 to 5% of the weed in the blank control area) | 1 | 2 (equivalent to 0 to 2.5% of the weed in the blank control area) | 2 (equivalent to 0 to 2.5% of the weed in the blank control area) | 1 | 2 (equivalent to 0 to 2.5% of the weed in the blank control area) | 1 | 2 (equivalent to 0 to 2.5% of the weed in the blank control area) | 3 (equivalent to 2.6 to 5% of the weed in the blank control area) | 1 | 1 | 1 | 1 | 1 | 1 | 1 | 1 | 4 (equivalent to 5.1 to 10% of the weed in the blank control area) | 2 (equivalent to 0 to 2.5% of the weed in the blank control area) | 2 (equivalent to 0 to 2.5% of the weed in the blank control area) | Post-emergence weed control effect, Green bristlegrass [18]: 1; Post-emergence weed control effect, Nutgrass flatsedge [19]: 2 (equivalent to 0 to 2.5% of the weed in the blank control area); Post-emergence weed control effect, Chenopodium album [20]: 1; Post-emergence weed control effect, Barnyard grass [21]: 2 (equivalent to 0 to 2.5% of the weed in the blank control area); Post-emergence weed control effect, Portulaca oleracea [22]: 1; Post-emergence weed control effect, Solanum nigrum [23]: 2 (equivalent to 0 to 2.5% of the weed in the blank control area); Post-emergence weed control effect, Amaranthus retroflexus [24]: 1; Post-emergence weed control effect, Convolvulus arvensis [25]: 1; Post-emergence weed control effect, Digitaria sanguinalis [26]: 2 (equivalent to 0 to 2.5% of the weed in the blank control area)
CS(=O)(=O)c1cc(C(F)(F)F)ccc1C(=O)c1cnoc1C1CC1 [Isoxaflutole, reference compound] | 1 | 1 | – | – | – | – | – | – | 1 | 1 | 1 | – | – | – | – | – | – | 1 | – | – | –
CS(=O)(=O)c1ccc(C(=O)C2C(=O)CCCC2=O)c([N+](=O)[O-])c1 [Mesotrione, reference compound] | – | – | – | – | – | – | – | – | – | – | – | 1 | 1 | 1 | 1 | 1 | 1 | – | 2 (equivalent to 0 to 2.5% of the weed in the blank control area) | 2 (equivalent to 0 to 2.5% of the weed in the blank control area) | Post-emergence weed control effect, Green bristlegrass [18]: 1; Post-emergence weed control effect, Nutgrass flatsedge [19]: 1; Post-emergence weed control effect, Chenopodium album [20]: 1; Post-emergence weed control effect, Barnyard grass [21]: 1; Post-emergence weed control effect, Portulaca oleracea [22]: 1; Post-emergence weed control effect, Solanum nigrum [23]: 1; Post-emergence weed control effect, Amaranthus retroflexus [24]: 1; Post-emergence weed control effect, Convolvulus arvensis [25]: 1; Post-emergence weed control effect, Digitaria sanguinalis [26]: 2 (equivalent to 0 to 2.5% of the weed in the blank control area)
COc1cnc(OC)n2nc(NS(=O)(=O)c3c(OCC(F)F)cccc3C(F)(F)F)nc12 [Penoxsulam, reference compound] | – | – | 2 (equivalent to 0 to 2.5% of the weed in the blank control area) | 1 | 2 (equivalent to 0 to 2.5% of the weed in the blank control area) | 2 (equivalent to 0 to 2.5% of the weed in the blank control area) | 2 (equivalent to 0 to 2.5% of the weed in the blank control area) | 1 | – | – | – | – | – | – | – | – | – | – | – | – | –
